Where two headings read alike, the source gives them in different places.
What was measured:
[1] = Phase 1/1b study: Compound A pharmacokinetics in patients; type: in vivo, human; conditions: for Tmax / half-life: human, oral, plasma; for Tmax: read-out: median Tmax
Description: (§1) This Example describes the study design of a Phase 1/1b study of Compound A in patients with advanced KRAS^G12C solid tumors with the first patient dosed in September 2022. There are two components in this study: Part 1—Dose Escalation and Part 2—Dose Expansion (FIG. 1). In Part 1—Dose Escalation, an assessment of safety and tolerability are conducted, and the candidate recommended Phase 2 dose and schedule (RP2DS) are determined for further testing in the Dose Expansion Part. Part 2 of the study evaluates the safety and antitumor effects of the candidate RP2DS in KRAS^G12C-mutant solid tumors.
Whole-blood samples were collected from all subjects to measure Compound A concentrations, circulating tumor deoxyribonucleic acid (ctDNA) and other biomarkers. Samples for pharmacodynamic assays collected in Cycle 1 and beyond. Paired pretreatment and on treatment fresh tumor samples collected from any subject if consent is obtained and at the discretion of the treating physician. Optional collection of pre-study treatment fresh biopsy should be performed prior to C1D1 dosing. An optional on-study treatment biopsy may be obtained with subject consent and at the discretion of the treating physician. The primary purpose of the optional on-study treatment biopsies is to assess pharmacodynamic markers and previously acquired pre-study treatment markers of resistance. Biopsy assessment with study intervention treatment over time may also help with better understanding of the shift in mutational profile with study treatment, as well as cellular clonality changes over time. Where tumor tissue allows, predictive biomarkers of response are explored.
Initially Compound A will be administered orally QD for a treatment cycle of 21 days. BID dosing be administered to subjects who are enrolled into Dose level 3 and higher dose levels during escalation as well. For subjects on BID dosing, the second dose of Compound A is administered approximately 10 to 12 hours after the first dose is administered.
(§2) Patients with previously treated, advanced […] solid tumors received escalating doses of Compound A. Doses included 50 mg, 100 mg, and 200 mg once daily (QD) and 100 mg, 200 mg, 300 mg, and 400 mg twice daily (BID). Each cycle had 21 days, with efficacy assessed every 6 weeks. Additional patients were enrolled to backfill cohorts at dose levels that cleared dose-limiting toxicity evaluation to further characterize PK, safety, and anti-tumor activity of Compound A as described in Example 1.

[2] = tested on: xenograft models of human KRAS^G12C cancers; assay: Xenograft / preclinical models of KRAS G12C cancers; type: in vivo
KRAS^G12C NSCLC = assay: Phase 1/1b study: tumor response per RECIST 1.1 in KRAS G12C NSCLC; type: in vivo, human; conditions: for patients who responded (response rate): all doses
Description: as §1
(§3) Subjects are assessed for response using Response Evaluation Criteria in Solid Tumors (version 1.1) (RECIST [v1.1]). All subjects with previous or current, known or suspected brain metastases must have a magnetic resonance imaging (MRI) of the brain (unless contraindicated) performed within 28 days prior to the first dose of Compound A (C1D1). Disease response for clinical management of subjects were assessed per RECIST (v1.1).
as §2

[3] = Phase 1/1b study: safety, treatment-related adverse events; type: in vivo, human
Description: as §1
Safety assessments and procedures were performed. Real-time safety monitoring is performed to ensure that the protocol-specified dose modification guidelines are followed. In addition, C1 safety and available PK and pharmacodynamic data reviewed and evaluated at each Compound A dose level/schedule to determine whether enrollment into the next higher dose-level cohort could proceed. A modified schedule evaluated in which Compound A may be administered more or less frequently than once daily (QD). The totality of the data from dose escalation cohorts is reviewed and one or more candidate RP2DS for expansion in Part 2 can be recommended.
as §2

[4] = tested on: human cancer cell lines harboring the KRAS^G12C mutation; assay: Growth suppression and apoptosis in KRAS G12C cancer cell lines; type: cell-based; conditions: multiple human cancer cell lines harboring KRAS^G12C
KRAS^G12C CRC = assay: Phase 1/1b study: tumor response per RECIST 1.1 in KRAS G12C CRC; type: in vivo, human
Description: as §1, §3, §2

[5] = 47 patients, all doses, as of Aug. 8, 2023
[6] = FIG. 3, CRC naive to KRAS^G12C(OFF) inhibitor, RECIST 1.1

- Tmax ([1]; 13 subjects, data as of May 15, 2023): 1 h
- half-life ([1]; 13 subjects, data as of May 15, 2023, read-out: terminal half-life in the plasma): < 3 h
- Tmax ([1]; patients, data as of Aug. 8, 2023): 1 h
- half-life ([1]; patients, data as of Aug. 8, 2023, read-out: terminal half-life (converted)): 1.8 h
- exposure ([1]; patients, escalating oral doses 50 mg QD to 400 mg BID): dose-dependent exposure
- AUC ([1]; range of 50-200 mg): increased in a dose-dependent manner
- Cmax ([1]; range of 50-200 mg): increased in a dose-dependent manner
- mean accumulation ratio (C1D15 AUC vs C1D1 AUC) ([1]; repeated daily dosing): less than 2 ×
SMILES: CCn1c(-c2cccnc2[C@H](C)OC)c2c3cc(ccc31)N1CCO[C@@H](C[C@H](NC(=O)[C@H](C(C)C)N(C)C(=O)C3(F)CCN(C(=O)C#CC(C)(C)N(C)C)CC3)C(=O)N3CCC[C@H](N3)C(=O)OCC(C)(C)C2)C1 (atropisomer, axis not shown) [Compound A]
- response in preclinical models compared to adagrasib ([2]; compared to the KRAS^G12C(OFF) inhibitor adagrasib): superior response rate, deeper regressions and longer duration of response
- anti-tumor activity in vivo ([2]; multiple xenograft models of human KRAS^G12C cancers): dose-dependent and durable tumor regressions
- confirmed PR, number of patients (KRAS^G12C NSCLC; FIG. 2, NSCLC, RECIST 1.1): 5
- unconfirmed PR, number of patients (KRAS^G12C NSCLC; FIG. 2, NSCLC, RECIST 1.1): 3
- disease control rate (KRAS^G12C NSCLC; NSCLC, both sets of patients (G12C(OFF) inhibitor naive and pretreated)): 100%
- patients who responded (response rate) (KRAS^G12C NSCLC; NSCLC, not previously treated with G12C(OFF) inhibitor, three of seven, as of Oct. 5, 2023): 43%
- patients who responded (response rate) (KRAS^G12C NSCLC; NSCLC, previously treated with G12C(OFF) inhibitor, 5 of 10, as of Oct. 5, 2023): 50%
- Gr3 TRAE QTc prolongation, number of patients ([3]; 200 mg BID): 1 patients
- Gr3 TRAE QTc prolongation, number of patients ([3]; 300 mg): 1 patients
- Gr3 TRAE QTc prolongation, number of patients ([3]; 400 mg BID): 3 patients
- TRAE QTc prolongation, patients [3, 5]: 21%
- TRAE diarrhea, patients [3, 5]: 30%
- TRAE fatigue, patients [3, 5]: 15%
- TRAE nausea, patients [3, 5]: 34%
- TRAE vomiting, patients [3, 5]: 15%
- Gr3 TRAE QTc prolongation, number of patients ([3]; all doses): 5 patients
- treatment-emergent AE that led to treatment discontinuation ([3]; all doses): No patients
- treatment-related Gr4 or 5 AE ([3]; all doses): No patients
- treatment-related ≥Gr3 hepatotoxicity ([3]; all doses): No treatment-related ≥Gr3 hepatotoxicity was observed
- patients with average QTc interval >501 ms ([3]; out of the 5 patients with Gr3 QTc prolongation): one
- effect on cancer cell lines in vitro [4]: growth suppression and apoptosis
- disease control rate (KRAS^G12C CRC; CRC, not previously treated with G12C(OFF) inhibitor): 80%
- patients with partial response (KRAS^G12C CRC; CRC, not previously treated with G12C(OFF) inhibitor, 8 of 20, as of Oct. 5, 2023): 40%
- confirmed PR, number of patients (KRAS^G12C CRC; [6]): 5
- unconfirmed PR, number of patients (KRAS^G12C CRC; [6]): 3

Source: patent US20250049810A1, “METHODS OF TREATING A RAS PROTEIN-RELATED DISEASE OR DISORDER” (Revolution Medicines, Inc., priority 2023, published 2025)
